BindingDB's records for doi:10.1016/j.ejmech.2012.05.016 (Piramal Healthcare, 2012)

These compounds were tested against DGAT1 (Homo sapiens) (assay: Inhibition of human DGAT1 assessed as conversion of [14C]-oleoyl-CoA to [14C]-triglyceride after 10 mins by scintillation counting).

Compound	IC50
CC(C)[C@H](NC(=O)c1cc(-c2ccc(NC(=O)Nc3ccc(Cl)cc3Oc3ccccc3)cc2)no1)C(=O)O	0.086 µM
CC(C)[C@H](NC(=O)c1ncc(-c2ccc(NC(=O)Nc3ccc(Cl)cc3Oc3ccccc3)cc2)o1)C(=O)O	0.23 µM
Cc1ccccc1NC(=O)Nc1ccc(-c2cc(C(=O)N[C@H](C(=O)O)C(C)C)on2)cc1	0.084 µM
CC(C)[C@H](NC(=O)c1nc(-c2ccc(NC(=O)Nc3ccc(F)cc3F)cc2)no1)C(=O)O	0.259 µM
CC(C)[C@H](NC(=O)c1cc(-c2ccc(NC(=O)Nc3cccc(Cl)c3)cc2)no1)C(=O)O	0.045 µM
CC(C)[C@H](NC(=O)c1cc(-c2ccc(NC(=O)Nc3ccccc3Cl)cc2)no1)C(=O)O	0.044 µM
CC(C)[C@H](NC(=O)c1cc(-c2ccc(NC(=O)Nc3ccc(Cl)cc3)cc2)no1)C(=O)O	0.124 µM
CC(C)[C@H](NC(=O)c1ncc(-c2ccc(NC(=O)Nc3cccc(C(F)(F)F)c3)cc2)o1)C(=O)O	0.458 µM
CC(C)[C@H](NC(=O)c1ncc(-c2ccc(NC(=O)Nc3ccccc3Cl)cc2)o1)C(=O)O	0.282 µM
CC(C)[C@H](NC(=O)c1cc(-c2ccc(NC(=O)Nc3ccc(F)cc3)cc2)no1)C(=O)O	0.06 µM
Cc1cc(C)cc(NC(=O)Nc2ccc(-c3cc(C(=O)N[C@H](C(=O)O)C(C)C)on3)cc2)c1	0.114 µM
CC(C)[C@H](NC(=O)c1cc(-c2ccc(Nc3nc4ccc(F)cc4s3)cc2)no1)C(=O)O	0.12 µM
CC(C)[C@H](NC(=O)c1cc(-c2ccc(NC(=O)Nc3cccc(C(F)(F)F)c3)cc2)no1)C(=O)O	0.066 µM
Cc1ccc(NC(=O)Nc2ccc(-c3cc(C(=O)N[C@H](C(=O)O)C(C)C)on3)cc2)cc1	0.061 µM

The remaining lines, values ahead:

IC50	Compound
0.178 µM	Cc1ccc(NC(=O)Nc2ccc(-c3cc(C(=O)N[C@H](C(=O)O)C(C)C)on3)cc2)cc1F
0.141 µM	CC(C)[C@H](NC(=O)c1cc(-c2ccc(NC(=O)Nc3cc(F)ccc3F)cc2)no1)C(=O)O
0.075 µM	CC(C)[C@H](NC(=O)c1cc(-c2ccc(NC(=O)Nc3ccc(F)c(F)c3)cc2)no1)C(=O)O
0.185 µM	CC(C)[C@H](NC(=O)c1cc(-c2ccc(NC(=O)Nc3c(F)cccc3F)cc2)no1)C(=O)O
0.062 µM	CC(C)[C@H](NC(=O)c1cc(-c2ccc(NC(=O)Nc3ccc(F)cc3F)cc2)no1)C(=O)O
0.141 µM	CC(C)[C@H](NC(=O)c1cc(-c2ccc(NC(=O)Nc3ccccc3F)cc2)no1)C(=O)O
0.075 µM	CC(C)[C@H](NC(=O)c1cc(-c2ccc(NC(=O)Nc3cc(F)cc(F)c3)cc2)no1)C(=O)O
0.09 µM	Cc1cc(F)ccc1NC(=O)Nc1ccc(-c2cc(C(=O)N[C@H](C(=O)O)C(C)C)on2)cc1
0.024 µM	CC(C)[C@H](NC(=O)c1cc(-c2ccc(NC(=O)Nc3ccc(Cl)cc3F)cc2)no1)C(=O)O
